Experimental data reported in paper PMC7440915, “Discovery of surrogate agonists for visceral fat Treg cells that modulate metabolic indices in vivo” (eLife, 2020).
Where no end group is shown, it is not given here.

Test system: vTreg53 Treg cells and VAT immunocytes
Assay: Immunocyte composition of spleen and VAT in HFD-fed mice after vTreg53 Treg transfer and immunization
Assay type: in vivo, mouse
Description: Figure 6. Immunization with Fat1562 expands transferred vTreg53 Treg cells and suppresses HFD-induced VAT inflammation. (A) Scheme of the transfer and immunization protocol. (B) Frequencies of CD45.2^+ cells in Treg cells (n ≥ 7). (C) Frequencies of clonotype^+ cells in transferred CD45.2^+ Treg cells (n ≥ 7). (D) Number of clonotype^+ CD45.2^+ Treg cells in the spleen (n ≥ 7). (E) Number of clonotype^+ CD45.2^+ Treg cells in the VAT (n ≥ 7). (F) Number of total Treg cells in the spleen (n ≥ 7). (G) Number of total Treg cells in VAT (n ≥ 7). (H) Numbers of eosinophils and CD11c^hi inflammatory macrophages in VAT (n ≥ 7). Data are mean ± SD. Data shown are representative of at least two independent experiments. Figure 6—figure supplement 1. Gating strategy. Gating strategy used for detection of VAT Treg cells (top) and, eosinophils or macrophage cells (bottom) by flow cytometry. [drawing 6] TEXT PRINTED IN THE PICTURE: (B) adjuvant: Spl: 0.3 (Gated on Tregs); VAT: 4 (Gated on Tregs) | (B) adjuvant/ Fat1562: Spl: 1.2 (Gated on Tregs); VAT: 53.4 (Gated on Tregs) | (C) adjuvant: Spl: 62.3 (Gated on CD45.2^+ Tregs); VAT: 94.1 (Gated on CD45.2^+ Tregs) | (C) adjuvant/ Fat1562: Spl: 94.1 (Gated on CD45.2^+ Tregs); VAT: 97.8 (Gated on CD45.2^+ Tregs) | (H) adjuvant: 9.3 (Gated on CD45.1^+); 46.3 (Gated on CD45.1^+); 41.3 (Gated on F4/80^+) | (H) adjuvant/ Fat1562: 14.5 (Gated on CD45.1^+); 39.6 (Gated on CD45.1^+); 22.6 (Gated on F4/80^+) DOUBTS OF THE COPYIST ABOUT THIS PICTURE: All values are gate numbers printed inside flow cytometry plots; no measure or unit is printed beside them, so it is uncertain whether they count as results for a substance / 'adjuvant' is the control treatment and 'adjuvant/Fat1562' the test treatment; these are treatment groups, not single compounds / Panel B, adjuvant, VAT: printed as 4, a decimal may be hidden
Mice were asphyxiated with CO2. Epididymal VAT was excised, minced and digested for 20 min with 1.5 mg/ml collagenase type II (Sigma) in Dulbecco’s Modified Eagle’s Medium (DMEM) supplemented with 2% fetal calf serum (FCS) in a 37°C water bath with shaking. The digested materials were filtered through a sieve and then a 40 µm nylon cell strainer. The stromal vascular fraction was collected after centrifugation at 450 g for 10 min. For surface markers, cells were stained with anti-CD45.1 (A20), -CD45.2 (104), -CD3 (17A2), -CD4 (GK1.5), -TCR Vα2 (B20.1), -CD44 (IM7), -CD62L (MEL-14), -CD45 (30-F11), -CD11b (M1/70), -CD11c (N418), -F4/80 (BM8) mAbs (all from Biolegend), and anti-TCR Vβ4 (KT4), anti-Siglec-F (E50-2440) mAbs (both from BD Biosciences), as detailed in experiment descriptions. Foxp3 staining was performed using the Foxp3/Transcription Factor Staining Buffer Set and anti-Foxp3 (FJK-16s) mAb (both from eBioscience). Cells were acquired with an LSRII flow cytometer (BD Biosciences), an Accuri (BD Biosciences) or Cytoflex (Beckman Coulter). Propidium Iodide was used to distinguish live from dead cells. Assays were performed in biological duplicates or triplicates as described in the figure legends. Data were analyzed using FlowJo.
To assess early Treg proliferation following peptide stimulation in vivo, 0.4 million Treg cells were sorted from pooled Spl and LNs of 6-8wk-old male CD45.2^+ Tg^+ Foxp3-GFP^KI/y mice by Moflo, labeled by the CellTrace Violet dye (ThermoFisher Scientific), and were i.v.-injected into 6-8wk old male B6.CD45.1^+ mice. The next day, the recipient mice were injected with 200 µg peptides emulsified in CFA (CFA/peptides) s.c. on the lower back. Proliferation of clonotype^+ Tregs in the spleen was determined three days later. To examine the expansion of VAT-Treg cells by peptide immunization, we sorted 0.4 million Treg cells from pooled Spl/LNs of 6-8wk-old male CD45.2^+ Tg^+ Foxp3-GFP^KI/y mice and transferred them i.v. into 6-8wk old male B6.CD45.1^+ mice. […]

TMYKNPRPMAATG [Fat1562]
VAT inflammation: reduced VAT inflammation | expansion of adoptively transferred vTreg53 cells: significant expansion | clonotype^+ TCR-tg Treg cells, share of entire VAT-Treg pool (VAT, n ≥ 7): almost half | frequency of CD11c^hi pro-inflammatory macrophages in VAT (VAT, n ≥ 7): reducing the frequency of CD11c^hi pro-inflammatory macrophages | proportion of eosinophils in VAT (VAT, n ≥ 7): significantly increased the proportion of eosinophils | total number of VAT Treg cells (VAT, n ≥ 7): significantly elevated | donor-derived cells, share of total Treg pool in spleen (spleen, immunization with Fat1562): less than 2% | total number of splenic Treg cells (spleen, n ≥ 7): did not show a significant increase
